Measurements from patent US7201928B1, “Extracts of orange peel for prevention and treatment of cancer” (Rutgers, The State University of New Jersey, priority 1999, dated 2007).
Like-named read-outs stand apart in the source and are kept apart here.

Assays:
W138 (normal) cells = experiment: cell proliferation assay and morphology, normal cells; format: cell-based, human; conditions: for neutral β-galactosidase activity (staining), senescence marker: W138 cells; for effect on normal cell growth: crystal violet, 0, 1, 5, 10, 20 or 50 μg/ml
Procedure: (§1) In addition to testing for the activity of the complete orange peel extract, two of the identified extract components, tangeretin and nobeletin, were tested for their combined activity in a cell proliferation assay. The growth of W138 (normal) and W138VA (transformed) cells was tested in the presence of a mixture of tangeretin and nobeletin. The dye crystal violet was used for measuring growth of the cells. Cells were treated with either tangeretin alone (0, 1, 5, 10, 20 or 50 μg/ml), nobeletin alone (0, 1, 5, 10, 20 or 50 μg/ml) or a mixture of the two compounds at a total concentration of the two flavenoids of 0, 1, 5, 10, 20 or 50 μg/ml. […] The range of doses of the extract tested was 0, 1, 5, 10, 20 and 50 μg/ml.
(§2) W138 human diploid fibroblasts and cancerous SV40-transformed W138 cells (W138VA) were used in a cell proliferation assay. Growth rate and viability of these cells was determined following addition of resveratrol or one of its analogs. Doses tested ranged from 50 ng to 300 μg per ml or 1 μM to 100 μM concentrations in culture media. […] MR-1 was not active as an inhibitor of cell growth even at doses as high as 100 μM.
Treatment of W138 and W138VA cells with resveratrol and its analogs also led to morphological changes in the cells. Treatment of W138 cells with resveratrol and its analogs R-1 and R-3 led to elongation of normal W138 cells. Methoxy analogs such as MR-0 and MR-3 caused the flattening of W138 cells. This flattening was accompanied by an increase in neutral β-galactosidase activity as indicated by an increase in staining.

W138 and W138VA cells = experiment: cell proliferation assay, cell line not specified for the result; format: cell-based, human
Procedure: as §1, §2

184-B5/HER cells = experiment: preclinical cell culture model for human ductal breast carcinoma in situ; format: cell-based; conditions: for cell cycle analysis: relative to solvent-treated control cultures
Procedure: Experiments were also performed in a preclinical cell culture model for human ductal breast carcinoma in situ (DCIS). The human breast-derived preneoplastic cell line 184-B5/HER expressed HER-2/neu, p53 and EGFR but not ER, therefore resembling the clinical DCIS. Initial dose-response experiments compared the growth inhibitory effect of orange peel extract on the parental 184-B5 cells and the HER-2/neu oncogene-expressing 184-B5/HER cells. […] Orange peel extract at the maximum cytostatic dose of 100 ppm accumulated the cells in the G0/G1 phase and inhibited the S+G2/M phase of the cell cycle, leading to down-regulation of cell cycle progression. […] Treatment of 184-B5/HER cells with 100 ppm orange peel extract induced a 7.6-fold increase in sub G0/G1 (apoptotic) population. Consistent with the induction of apoptosis, immunoreactivity to anti-apoptotic Bcl-2 was decreased by 33%.
Resveratrol and its analogs were also tested in preneoplastic 184-B5/HER human mammary epithelial cells.

[1] = system: W138VA (transformed) cells; experiment: cell proliferation assay, transformed cells; format: cell-based, human; conditions: for inhibition of cell growth in transformed cells: crystal violet, 0, 1, 5, 10, 20 or 50 μg/ml
Procedure: as §1, §2

[2] = system: oncogene-expressing, preneoplastic breast epithelial cells; experiment: orthotransplant model, palpable tumor formation at transplant sites; conditions: AIN-76A diet supplemented with 400 ppm
Excerpt: Mice were transplanted with oncogene-expressing, preneoplastic breast epithelial cells. Mice were then divided into groups with the control group fed AIN-76A diet alone. Another group of mice was fed AIN-76A diet supplemented with MR-3 (400 ppm).

[3] = system: AOM-induced aberrant crypt foci (ACF); experiment: AOM-induced formation of aberrant crypt foci (colon cancer model); format: in vivo, Female CF-1 mice; conditions: 0.2% in diet
Procedure: The orange peel extract was then tested in an in vivo model for colon cancer. Female CF-1 mice were injected with azoxymethane (AOM) once a week for four weeks at increasing doses (5, 10, 10 and 10 mg/kg). Orange peel extract was administered in the diet (0.2%) starting two weeks before the first AOM injection, during and continuing until the end of the experiment at 24 weeks. At week 24, the mice were given one last dose of AOM (10 mg/kg). The mice were then sacrificed and their colons removed (from anus to caecum). The colons were opened longitudinally, rinsed with normal saline, and stapled to a plastic sheet. The colon samples were placed in a 10% neutral buffered formalin solution for 24 hours. The entire colon was stained with 0.2% methylene blue dissolved in phosphate buffered saline for 20 minutes. The whole mount of colon samples were then examined using light microscopy for the presence of aberrant crypt (AC) or aberrant crypt foci (ACF). Both ACF and AC are biomarkers for colon cancer. […] Mice fed nordihydroxyguaiaretic acid (NDGA) in the diet (0.2%) were used as controls.

AOM-induced colon tumors = experiment: AOM-induced colon tumorigenesis; conditions: 0.2% in AIN 76A diet + AOM
Procedure: In a similar experiment in the mouse colon cancer model, CF-1 mice were injected with AOM (5, 10, 10 and 10 mg/kg) starting at 6 weeks of age, once each week and then once at 37 weeks after the first dose of AOM. Throughout the treatment period, mice received either an AIN 76A diet or test compound in AIN 76A diet at 2 weeks before the first dose of AOM and continuing until the end of the experiment. The test compounds were NDGA (0.2%) and orange peel extract (0.2%). Colon samples were again obtained at sacrifice, stored in 10% formalin phosphate buffer, and then colon tumor number was determined.

[4] = read-out: concentration that inhibited growth by 50% (IC50), 184-B5/HER human mammary epithelial cells

## COc1ccc(C=Cc2cc(OC)cc(OC)c2)cc1 [MR-0, 3, 4′,5-trimethoxystilbene]
W138 (normal) cells
  morphological changes of W138 cells: flattening
  neutral β-galactosidase activity (staining), senescence marker: increase
W138 and W138VA cells; tested 1 μM to 100 μM
  inhibition of cell growth: inhibited cell growth
184-B5/HER cells; [4]
  IC50: 10.5 µM
184-B5/HER cells
  cell cycle analysis: progressive arrest of cells in the G2/M phase

## COc1cc(C=Cc2ccccc2)cc(OC)c1 [MR-1, 3,5-dimethoxystilbene]
W138 and W138VA cells; doses as high as 100 μM
  activity as inhibitor of cell growth: not active

## COc1cc(C=Cc2ccc(OC)c(OC)c2)cc(OC)c1 [MR-2, 3,3′,4,5′-tetramethoxystilbene]
184-B5/HER cells; [4]
  IC50: 120 µM
184-B5/HER cells
  cell cycle analysis: progressive arrest of cells in the G2/M phase

## COc1ccc(C=Cc2cc(OC)c(OC)c(OC)c2)cc1 [MR-3, 3,4,4′,5-tetramethoxystilbene]
[1]; 1 μM
  proliferation of W138VA cells: completely blocked proliferation
W138 (normal) cells
  morphological changes of W138 cells: flattening
  neutral β-galactosidase activity (staining), senescence marker: increase
W138 (normal) cells; 1 μM
  growth of W138 cells: no effect
184-B5/HER cells; Homo sapiens, 184B5, read-out: concentration that inhibited growth by 50% (IC50)
  IC50: 1 µM
184-B5/HER cells
  cell cycle analysis: progressive arrest of cells in the G2/M phase
[2]; 12 weeks
  toxicity (weight gains comparable): little toxicity
[2]; 12 weeks of continuous feeding
  tumor incidence: 20%

## COc1cc(C=Cc2cc(OC)cc(OC)c2)cc(OC)c1 [MR-4, 3,3′,5′5′-tetramethoxystilbene]
W138 (normal) cells; 100 μM
  growth of W138 cells: inhibited growth

## CC(Cc1ccc(O)c(O)c1)C(C)Cc1ccc(O)c(O)c1 (stereo not shown) [NDGA, nordihydroxyguaiaretic acid]
[3]; 24 weeks
  AC/ACF: 3.5
  AC/colon: 9.4 ± 2.2
  ACF/colon: 2.7 ± 0.9
  ACF: 1 AC/colon: 6.8 ± 1.5
  ACF: 2 AC/colon: 1.0 ± 0.3
  ACF: 3 AC/colon: 0.2 ± 0.2
  ACF: 4 AC/colon: 0
  ACF: 5 AC/colon: 0
  ACF: 6 AC/colon: 0
  ACF: 7 AC/colon: 0
[3]; vs positive control
  inhibition of the number of ACF per colon: 48%
  inhibition of the ratio of AC/ACF: 51%
AOM-induced colon tumors
  Colon Tumors Per Mouse: 0.27 ± 0.14
  Percent Incidence: 27%

## Oc1cc(O)cc(C=Cc2ccccc2)c1 [R-1, 3,5-dihydroxystilbene]
W138 (normal) cells
  morphological changes of W138 cells: elongation

## Oc1ccc(C=Cc2cc(O)c(O)c(O)c2)cc1 [R-3, 3,4,4′,5-tetrahydroxystilbene]
W138 (normal) cells
  morphological changes of W138 cells: elongation
W138 and W138VA cells; tested 1 μM to 100 μM
  inhibition of cell growth: inhibited cell growth

## COc1ccc(-c2cc(=O)c3c(OC)c(OC)c(OC)c(OC)c3o2)cc1OC [nobeletin, 5,6,7,8,3′,4′-hexamethoxyflavone]
[1]
  inhibition of cell growth in transformed cells: only marginal effects
W138 (normal) cells
  effect on normal cell growth: no effect

## Oc1ccc(C=Cc2cc(O)cc(O)c2)cc1 [resveratrol, reference compound]
W138 (normal) cells
  morphological changes of W138 cells: elongation
W138 and W138VA cells; tested 1 μM to 100 μM
  concentration inhibiting cell growth: less than 10 μM

## COc1ccc(-c2cc(=O)c3c(OC)c(OC)c(OC)c(OC)c3o2)cc1 [tangeretin, 5,6,7,8,4′-pentamethoxyflavone]
[1]
  inhibition of cell growth in transformed cells: only marginal effects
W138 (normal) cells
  effect on normal cell growth: no effect
